Results from PubChem BioAssay AID2060895 (Molecular Pharmacology Branch, DTP, NCI, 2025).

Tested on: PDC 899932-113-R3-J6 complex spheroid viability
Assay: Anticancer human tumor 899932-113-R3-J6-PDC patient-derived melanoma cell line growth inhibition [RAS]
Settings: for IC50: curve of first compound; for viability, T/C: stronger effect = lower value
Method in brief: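 Agents were tested in combination matrices in half-log decrements from a top concentration at or near clinical Cmax (10 microM if undetermined). Targets were multi-cell spheroids of tumour lines plus HUVEC and MSC stromal cells.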
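Wherever viability, T/C is given: spheroids exposed to agents for seven days before readout; 100% = DMSO vehicle control wells.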

CC1(C)CCC(Nc2ncc(C(F)(F)F)c(-c3c[nH]c4c(P(C)(C)=O)c(C#N)ccc34)n2)CN1 (centres undefined) + CCn1c(-c2cccnc2C(C)OC)c2c3cc(ccc31)N1CCOC(CC(NC(=O)C(C(C)C)N(C)C(=O)C3(F)CCN(C(=O)C#CC(C)(C)N(C)C)CC3)C(=O)N3CCCC(N3)C(=O)OCC(C)(C)C2)C1
IC50 (second compound 0.000949 µM): 25.9 nM | IC50 (second compound 0.003 µM): 20.1 nM | IC50 (second compound 0.00949 µM): 21.6 nM | IC50 (second compound 0.03 µM): 26.8 nM | IC50 (second compound 0.0949 µM): 22.5 nM | IC50 (second compound 0.3 µM): 18.8 nM | viability, T/C (second compound 0.000949 µM, first compound 0.000949 µM): 105% | viability, T/C (second compound 0.000949 µM, first compound 0.003 µM): 75.8% | viability, T/C (second compound 0.000949 µM, first compound 0.00949 µM): 62.9% | viability, T/C (second compound 0.000949 µM, first compound 0.03 µM): 52.4% | viability, T/C (second compound 0.000949 µM, first compound 0.0949 µM): 34% | viability, T/C (second compound 0.000949 µM, first compound 0.3 µM): 15.1% | viability, T/C (second compound 0.003 µM, first compound 0.000949 µM): 112% | viability, T/C (second compound 0.003 µM, first compound 0.003 µM): 78.6% | viability, T/C (second compound 0.003 µM, first compound 0.00949 µM): 61.3% | viability, T/C (second compound 0.003 µM, first compound 0.03 µM): 43.4% | viability, T/C (second compound 0.003 µM, first compound 0.0949 µM): 37.8% | viability, T/C (second compound 0.003 µM, first compound 0.3 µM): 15.5% | viability, T/C (second compound 0.00949 µM, first compound 0.000949 µM): 98.1% | viability, T/C (second compound 0.00949 µM, first compound 0.003 µM): 86.6% | viability, T/C (second compound 0.00949 µM, first compound 0.00949 µM): 61.9% | viability, T/C (second compound 0.00949 µM, first compound 0.03 µM): 41% | viability, T/C (second compound 0.00949 µM, first compound 0.0949 µM): 34.4% | viability, T/C (second compound 0.00949 µM, first compound 0.3 µM): 15% | viability, T/C (second compound 0.03 µM, first compound 0.000949 µM): 104% | viability, T/C (second compound 0.03 µM, first compound 0.003 µM): 88.2% | viability, T/C (second compound 0.03 µM, first compound 0.00949 µM): 64.7% | viability, T/C (second compound 0.03 µM, first compound 0.03 µM): 46.5% | viability, T/C (second compound 0.03 µM, first compound 0.0949 µM): 36.2% | viability, T/C (second compound 0.03 µM, first compound 0.3 µM): 20.2% | viability, T/C (second compound 0.0949 µM, first compound 0.000949 µM): 100% | viability, T/C (second compound 0.0949 µM, first compound 0.003 µM): 75.6% | viability, T/C (second compound 0.0949 µM, first compound 0.00949 µM): 59.8% | viability, T/C (second compound 0.0949 µM, first compound 0.03 µM): 47.4% | viability, T/C (second compound 0.0949 µM, first compound 0.0949 µM): 35.6% | viability, T/C (second compound 0.0949 µM, first compound 0.3 µM): 20.6% | viability, T/C (second compound 0.3 µM, first compound 0.000949 µM): 79.3% | viability, T/C (second compound 0.3 µM, first compound 0.003 µM): 71.8% | viability, T/C (second compound 0.3 µM, first compound 0.00949 µM): 57.1% | viability, T/C (second compound 0.3 µM, first compound 0.03 µM): 43.5% | viability, T/C (second compound 0.3 µM, first compound 0.0949 µM): 37.4% | viability, T/C (second compound 0.3 µM, first compound 0.3 µM): 28.4%

CC1(O)CCCC1n1c(=O)c(C(F)F)cc2cnc(NC3CCN(S(C)(=O)=O)CC3)nc21 (centres undefined) + C=CC(=O)N1CCN(c2nc(OCC3CCCN3C)nc3c(F)c(-c4nc(N)cc(C)c4C(F)(F)F)c(Cl)cc23)C(C)C1
IC50 (second compound 0.00316 µM): 1840 nM | IC50 (second compound 0.01 µM): 4020 nM | IC50 (second compound 0.0316 µM): 2480 nM | IC50 (second compound 0.1 µM): 1820 nM | IC50 (second compound 0.316 µM): 3290 nM | IC50 (second compound 1 µM): 3300 nM | viability, T/C (second compound 0.00316 µM, first compound 0.0316 µM): 99% | viability, T/C (second compound 0.00316 µM, first compound 0.1 µM): 73.6% | viability, T/C (second compound 0.00316 µM, first compound 0.316 µM): 62% | viability, T/C (second compound 0.00316 µM, first compound 1 µM): 63.5% | viability, T/C (second compound 0.00316 µM, first compound 3.16 µM): 57.3% | viability, T/C (second compound 0.00316 µM, first compound 10 µM): 21.4% | viability, T/C (second compound 0.01 µM, first compound 0.0316 µM): 92% | viability, T/C (second compound 0.01 µM, first compound 0.1 µM): 81.3% | viability, T/C (second compound 0.01 µM, first compound 0.316 µM): 71.1% | viability, T/C (second compound 0.01 µM, first compound 1 µM): 69.1% | viability, T/C (second compound 0.01 µM, first compound 3.16 µM): 64.5% | viability, T/C (second compound 0.01 µM, first compound 10 µM): 19.5% | viability, T/C (second compound 0.0316 µM, first compound 0.0316 µM): 94% | viability, T/C (second compound 0.0316 µM, first compound 0.1 µM): 88.2% | viability, T/C (second compound 0.0316 µM, first compound 0.316 µM): 65.8% | viability, T/C (second compound 0.0316 µM, first compound 1 µM): 66.2% | viability, T/C (second compound 0.0316 µM, first compound 3.16 µM): 53.1% | viability, T/C (second compound 0.0316 µM, first compound 10 µM): 19.2% | viability, T/C (second compound 0.1 µM, first compound 0.0316 µM): 96.2% | viability, T/C (second compound 0.1 µM, first compound 0.1 µM): 80.4% | viability, T/C (second compound 0.1 µM, first compound 0.316 µM): 62.2% | viability, T/C (second compound 0.1 µM, first compound 1 µM): 62.7% | viability, T/C (second compound 0.1 µM, first compound 3.16 µM): 54.5% | viability, T/C (second compound 0.1 µM, first compound 10 µM): 21.5% | viability, T/C (second compound 0.316 µM, first compound 0.0316 µM): 94.7% | viability, T/C (second compound 0.316 µM, first compound 0.1 µM): 80.1% | viability, T/C (second compound 0.316 µM, first compound 0.316 µM): 65% | viability, T/C (second compound 0.316 µM, first compound 1 µM): 67.8% | viability, T/C (second compound 0.316 µM, first compound 3.16 µM): 60% | viability, T/C (second compound 0.316 µM, first compound 10 µM): 17.3% | viability, T/C (second compound 1 µM, first compound 0.0316 µM): 88.5% | viability, T/C (second compound 1 µM, first compound 0.1 µM): 81.2% | viability, T/C (second compound 1 µM, first compound 0.316 µM): 63.7% | viability, T/C (second compound 1 µM, first compound 1 µM): 62% | viability, T/C (second compound 1 µM, first compound 3.16 µM): 62% | viability, T/C (second compound 1 µM, first compound 10 µM): 14%
